Values quoted from earlier work as cited in patent publication US20100260859A1 (ELAN PHARMA INTERNATIONAL LIMITED, priority 2009, published 2010).

established intrinsic solubility of clozapine in water: 0.016 mg/mL | solubility in water (in words): very slightly soluble in water
Structure (SMILES): CN1CCN(C2=Nc3cc(Cl)ccc3Nc3ccccc32)CC1 [Clozapine, 8-chloro-11-(4-methylpiperazin-1-yl)-5H-dibenzo[b,e][1,4]diazepine]
